Experimental data taken from patent US20180256460A1, “STAIN-REMOVING ORAL COMPOSITION” (LOTTE CO., LTD., priority 2014, published 2018).
“Also recorded” adds a separate entry of the source.

How the values were obtained:
[1] = Stain-removing effect of saliva solutions containing chewing gum components, color difference of stained hydroxyapatite discs; details: for Stain-removing effect of the acidulant itself: color difference: 0.1% in saliva solution, pH 6, compared to the saliva alone (pH 7), FIG. 3A, n=5, p<0.05
Procedure: Each research volunteer was asked to masticate one tablet of salivary gum (Morita Corporation), and about 30 ml of the saliva was collected respectively. The collected saliva was all combined in one container (beaker) so that personal information could not be traced. The collected saliva was centrifuged at 2,500×g for 10 minutes, and the supernatant was used as a saliva sample for a solvent in a testing solution.
The amount of the saliva collected when masticating 2 tablets of gum for 5 minutes was 15 ml on average. The sugar alcohol or acidulant was dissolved under stirring in a weight ratio corresponding to 2 tablets of the sample chewing gum into 15 ml of the saliva sample processed with the procedure of 2. That is, to 15 ml of a saliva sample, 2.31 g (15.4%) of the sugar alcohol or 15 mg (0.1%) of the acidulant was added and dissolved. Sodium metaphosphate was dissolved under stirring in an amount needed for each testing. For pH adjustment, an aqueous solution of hydrochloric acid or sodium hydroxide was used.
3% green tea extract, 1% black tea extract, and 1% instant coffee were dissolved under stirring in mineral water at 100° C. to obtain a staining liquid (instant coffee; Ajinomoto General Foods, Inc., mineral water; Suntory Foods Limited).
Hydroxyapatite discs (10 mm×10 mm, APP-100, HOYA Corporation) the surfaces of which were uniformly polished with a P400 waterproof abrasive paper were used as human enamel models. The hydroxyapatite discs after polishing were subjected to color measurement by the method of 6. as mentioned below to obtain reference values for the discs. The hydroxyapatite discs were separately put in a 12-well plate (IWAKI&Co., Ltd.) and immersed in 2.5 ml of the saliva sample and allowed to stand still at 37° C. for 2 hours so that saliva pellicles were formed on the surface. The discs were washed with water, and immersed in 2.5 ml of the staining liquid each added in each well of a fresh 12-well plate, and moderately shook at 37° C. for 24 hours so that stains were formed. The hydroxyapatite discs after staining were subjected to color measurement by the method in 6. mentioned below to obtain measurement values after staining. Hydroxyapatite discs after staining subjected to color measurement were placed in a fresh 12-well plate, and 2.5 ml of the saliva sample, the saliva solution containing chewing gum components, or the chewing gum extract solution was dispensed in each well, then the discs were immersed for 5 minutes or 35 minutes. The immersed discs were washed with distilled water, and extra water was wiped off with paper to dry the discs, followed by color measurement.
A spectrophotometer (CM-700d, Konica Minolta, Inc.) was set upright so that the colorimetric direction was upward. Hydroxyapatite discs before the pellicle formation, after staining or after the solution treatment were allowed to stand still above the colorimetric light source, and color measurements were performed 3 times successively, and the average value was employed. Color measurements were performed on the L*axis (lightness), the a*axis (chroma: red-green axis), and the b*axis (chroma: yellow-blue axis) of the L*a*b*color space based on JIS Z 8722:2009, under the condition of SCI including reflected light. […] E*ab was calculated according to the following expressions. […]

[2] = aqueous system; cited from earlier work

With `O=C(O)CC(O)(CC(=O)O)C(=O)O` [citric acid] the “Stain-removing effect of the acidulant itself: color difference” value [1] was “a decrease in the color difference was observed”.

In the case of `O=C(O)CC(O)C(=O)O` (centres unmarked) [malic acid], the “Stain-removing effect of the acidulant itself: color difference” value [1] is reported as “a decrease in the color difference was observed”.

In the case of `O=P(=O)O` [metaphosphoric acid], the pKa [2] is listed as “as small as not measurable in an aqueous system”.

For sodium metaphosphate, the “Stain-removing effect: color difference of stained hydroxyapatite discs” value ([1]; 0.066% or 0.2% in the saliva, compared to the saliva alone, FIG. 1, n=6, p<0.05) was “a significant difference was observed compared to the case where the discs were treated with the saliva alone; also recorded: a significant decrease in the color difference was observed” and the “Influence of pH on stain removal: transition of the color difference” value ([1]; saliva with 0.1% sodium metaphosphate, pH 5 compared to pH 7, FIG. 3C, n=6, p<0.05) was “a significant difference in the transition of the color difference was observed”.
